{
  "source": "paper PMC5218480",
  "about": "(PLoS ONE, 2017)",
  "test_system": "MV-4-11 cells",
  "test": "Gene expression microarray analysis (Affymetrix PrimeView) and GSEA",
  "type": "cell-based, human",
  "design": "RFU PODN (11730768_x_at) / Fold change /veh PODN (11730768_x_at) / RFU LINC00158 (11744669_a_at) / Fold change /veh LINC00158 (11744669_a_at) / RFU DUSP10 (11751237_a_at) / Fold change /veh DUSP10 (11751237_a_at) / RFU ID3 (11757404_x_at) / Fold change /veh ID3 (11757404_x_at) / RFU PLEKHG5 (11737974_s_at) / Fold change /veh PLEKHG5 (11737974_s_at) / RFU LRRC4B (11730491_at) / Fold change /veh LRRC4B (11730491_at) / RFU GIMAP4 (11747438_a_at) / Fold change /veh GIMAP4 (11747438_a_at) / RFU KRT8 (11758183_x_at) / Fold change /veh KRT8 (11758183_x_at) / RFU CNN1 (11734310_a_at) / Fold change /veh CNN1 (11734310_a_at) / RFU VPS37D (11726825_at) / Fold change /veh VPS37D (11726825_at) / RFU C10orf10 (11716522_x_at) / Fold change /veh C10orf10 (11716522_x_at) / RFU KIR2DL2 /// KIR2DL4 /// KIR2DL5A /// KIR2DL5B /// KIR2DS1 /// KIR2DS2 /// KIR2DS3 /// KIR2DS4 /// KIR3DL3 /// KIR3DL3 /// KIR3DS1 (11738374_at) / Fold change /veh KIR2DL2 /// KIR2DL4 /// KIR2DL5A /// KIR2DL5B /// KIR2DS1 /// KIR2DS2 /// KIR2DS3 /// KIR2DS4 /// KIR3DL3 /// KIR3DL3 /// KIR3DS1 (11738374_at) / RFU C1QL1 (11718748_at) / Fold change /veh C1QL1 (11718748_at) / RFU TMPRSS4 (11747572_a_at) / Fold change /veh TMPRSS4 (11747572_a_at) / RFU HAMP (11756126_x_at) / Fold change /veh HAMP (11756126_x_at) / RFU RNFT2 (11725882_a_at) / Fold change /veh RNFT2 (11725882_a_at) / RFU NR4A2 (11747474_a_at) / Fold change /veh NR4A2 (11747474_a_at) / RFU ABCC12 (11746883_a_at) / Fold change /veh ABCC12 (11746883_a_at) / RFU TMEM136 (11760407_x_at) / Fold change /veh TMEM136 (11760407_x_at) / RFU CLDN22 /// WWC2 (11732394_at) / Fold change /veh CLDN22 /// WWC2 (11732394_at) / RFU HLA-DPB1 (11760878_x_at) / Fold change /veh HLA-DPB1 (11760878_x_at) / RFU SPINT1 (11716480_a_at) / Fold change /veh SPINT1 (11716480_a_at) / RFU GAP43 (11754022_s_at) / Fold change /veh GAP43 (11754022_s_at) / RFU A4GNT (11735810_at) / Fold change /veh A4GNT (11735810_at) / RFU PRB3 (11715151_x_at) / Fold change /veh PRB3 (11715151_x_at) / RFU TUBB4B (11761932_at) / Fold change /veh TUBB4B (11761932_at) / RFU CAPN14 (11732068_a_at) / Fold change /veh CAPN14 (11732068_a_at) / RFU TMCC2 (11721928_a_at) / Fold change /veh TMCC2 (11721928_a_at) / RFU IRGQ (11745062_a_at) / Fold change /veh IRGQ (11745062_a_at) / RFU FAM174B (11720279_a_at) / Fold change /veh FAM174B (11720279_a_at) / RFU TMPRSS4 (11748680_a_at) / Fold change /veh TMPRSS4 (11748680_a_at) / RFU FAM212B (11763350_a_at) / Fold change /veh FAM212B (11763350_a_at) / RFU PLEKHG5 (11743358_a_at) / Fold change /veh PLEKHG5 (11743358_a_at) / RFU ZSCAN30 (11745921_a_at) / Fold change /veh ZSCAN30 (11745921_a_at) / RFU CMKLR1 (11741424_a_at) / Fold change /veh CMKLR1 (11741424_a_at) / RFU LOC101060620 /// MAPK8IP1 (11723275_at) / Fold change /veh LOC101060620 /// MAPK8IP1 (11723275_at) / RFU SPTSSB (11747773_x_at) / Fold change /veh SPTSSB (11747773_x_at) / RFU PRSS12 (11739890_at) / Fold change /veh PRSS12 (11739890_at) / RFU BIN1 (11741810_x_at) / Fold change /veh BIN1 (11741810_x_at) / RFU WNT11 (11732464_a_at) / Fold change /veh WNT11 (11732464_a_at) / RFU C10orf10 (11716521_a_at) / Fold change /veh C10orf10 (11716521_a_at) / RFU C5orf56 (11738089_at) / Fold change /veh C5orf56 (11738089_at) / RFU CYB561 (11721691_x_at) / Fold change /veh CYB561 (11721691_x_at) / RFU ANKRD19P (11752326_a_at) / Fold change /veh ANKRD19P (11752326_a_at) / RFU OR2T12 /// OR2T33 /// OR2T8 (11738714_s_at) / Fold change /veh OR2T12 /// OR2T33 /// OR2T8 (11738714_s_at) / RFU VCAN (11748164_a_at) / Fold change /veh VCAN (11748164_a_at) / RFU JSRP1 (11732532_at) / Fold change /veh JSRP1 (11732532_at) / RFU KRTAP10-11 (11738290_x_at) / Fold change /veh KRTAP10-11 (11738290_x_at) / RFU MYO3A (11730013_a_at) / Fold change /veh MYO3A (11730013_a_at) / RFU EBF3 (11725865_a_at) / Fold change /veh EBF3 (11725865_a_at) / RFU CAMK2N1 (11719241_x_at) / Fold change /veh CAMK2N1 (11719241_x_at) / RFU C5orf56 (11738088_a_at) / Fold change /veh C5orf56 (11738088_a_at) / RFU OLFML3 (11715873_a_at) / Fold change /veh OLFML3 (11715873_a_at) / RFU LOC100653217 /// NTM (11731650_a_at) / Fold change /veh LOC100653217 /// NTM (11731650_a_at) / RFU MAPK11 (11762145_a_at) / Fold change /veh MAPK11 (11762145_a_at) / RFU FIZ1 (11724087_x_at) / Fold change /veh FIZ1 (11724087_x_at) / RFU OASL (11726364_x_at) / Fold change /veh OASL (11726364_x_at) / RFU SOX15 (11748057_x_at) / Fold change /veh SOX15 (11748057_x_at) / RFU CD79A (11719716_a_at) / Fold change /veh CD79A (11719716_a_at) / RFU HIST1H1D (11736915_at) / Fold change /veh HIST1H1D (11736915_at) / RFU CASKIN2 (11723855_a_at) / Fold change /veh CASKIN2 (11723855_a_at) / RFU LOC730098 (11760151_x_at) / Fold change /veh LOC730098 (11760151_x_at) / RFU OR4N2 (11742367_at) / Fold change /veh OR4N2 (11742367_at) / RFU PRRT2 (11749266_a_at) / Fold change /veh PRRT2 (11749266_a_at) / RFU SNX32 (11753110_a_at) / Fold change /veh SNX32 (11753110_a_at) / RFU CDHR5 (11726645_a_at) / Fold change /veh CDHR5 (11726645_a_at) / RFU RCAN1 (11760418_a_at) / Fold change /veh RCAN1 (11760418_a_at) / RFU FAM167A (11723789_a_at) / Fold change /veh FAM167A (11723789_a_at) / RFU FAM26E (11764081_at) / Fold change /veh FAM26E (11764081_at) / RFU ISYNA1 (11749810_s_at) / Fold change /veh ISYNA1 (11749810_s_at) / RFU ACY1 (11761880_at) / Fold change /veh ACY1 (11761880_at) / RFU 11764098_at / Fold change /veh 11764098_at / RFU SAMD14 (11745864_x_at) / Fold change /veh SAMD14 (11745864_x_at) / RFU NPB (11741838_a_at) / Fold change /veh NPB (11741838_a_at) / RFU TMPRSS6 (11731388_a_at) / Fold change /veh TMPRSS6 (11731388_a_at) / RFU KRTAP10-2 (11738614_at) / Fold change /veh KRTAP10-2 (11738614_at) / RFU ARHGAP8 /// PRR5-ARHGAP8 (11727945_x_at) / Fold change /veh ARHGAP8 /// PRR5-ARHGAP8 (11727945_x_at) / RFU KRTAP5-7 /// NADSYN1 (11734609_at) / Fold change /veh KRTAP5-7 /// NADSYN1 (11734609_at) / RFU RASL12 (11751679_a_at) / Fold change /veh RASL12 (11751679_a_at) / RFU CDKN2B (11736163_a_at) / Fold change /veh CDKN2B (11736163_a_at) / RFU PRF1 (11729649_at) / Fold change /veh PRF1 (11729649_at) / RFU, ZNF638 /// ZNF638-IT1 / Fold change vs veh, ZNF638 /// ZNF638-IT1 / RFU, PANK3 / Fold change vs veh, PANK3 / RFU, SH3YL1 / Fold change vs veh, SH3YL1 / RFU, ZEB2 / Fold change vs veh, ZEB2 / RFU, NRIP1 / Fold change vs veh, NRIP1 / RFU, PTTG1IP / Fold change vs veh, PTTG1IP / RFU, CAPN2 / Fold change vs veh, CAPN2 / RFU, MED14 / Fold change vs veh, MED14 / RFU, SNORA58 / Fold change vs veh, SNORA58 / RFU, C1orf63 / Fold change vs veh, C1orf63 / RFU, LRRFIP1 / Fold change vs veh, LRRFIP1 / RFU, NDUFAF7 / Fold change vs veh, NDUFAF7 / RFU, SLC12A2 / Fold change vs veh, SLC12A2 / RFU, IBTK / Fold change vs veh, IBTK / RFU, ESF1 / Fold change vs veh, ESF1 / Fold change vs veh, TMEM50B / RFU, TAOK1 / Fold change vs veh, TAOK1 / RFU, ACBD3 / Fold change vs veh, ACBD3 / RFU, TMA16 / Fold change vs veh, TMA16 / RFU, RWDD3 / Fold change vs veh, RWDD3 / RFU, BCAT1 / Fold change vs veh, BCAT1 / RFU, EDEM3 / Fold change vs veh, EDEM3 / RFU, TMEM33 / Fold change vs veh, TMEM33 / RFU, WDR75 / Fold change vs veh, WDR75 / RFU, AHCTF1 / Fold change vs veh, AHCTF1 / RFU, TFRC / Fold change vs veh, TFRC / RFU, ZDHHC17 / Fold change vs veh, ZDHHC17 / RFU, NOM1 / Fold change vs veh, NOM1 / RFU, ARL8B / Fold change vs veh, ARL8B / RFU, ZBTB11 / Fold change vs veh, ZBTB11 / RFU, TAMM41 / Fold change vs veh, TAMM41 / RFU, KIAA1704 /// LOC100996395 / Fold change vs veh, KIAA1704 /// LOC100996395 / RFU, ING1 / Fold change vs veh, ING1 / RFU, TRMT61B / Fold change vs veh, TRMT61B / RFU, FUBP3 / Fold change vs veh, FUBP3 / RFU, TP53 / Fold change vs veh, TP53 / RFU, TNKS2 / Fold change vs veh, TNKS2 / RFU, ZFP14 / Fold change vs veh, ZFP14 / RFU, ACTR2 / Fold change vs veh, ACTR2 / RFU, PPP3R1 / Fold change vs veh, PPP3R1 / RFU, PIK3R1 / Fold change vs veh, PIK3R1 / RFU, HNRNPA1 / Fold change vs veh, HNRNPA1 / RFU, RNF170 / Fold change vs veh, RNF170 / RFU, ZNF28 / Fold change vs veh, ZNF28 / RFU, RNGTT / Fold change vs veh, RNGTT / RFU, OGT / Fold change vs veh, OGT / RFU, BRD1 / Fold change vs veh, BRD1 / RFU, MARS / Fold change vs veh, MARS / RFU, ZNF655 / Fold change vs veh, ZNF655 / RFU, FAHD1 / Fold change vs veh, FAHD1 / RFU, BDP1 / Fold change vs veh, BDP1 / RFU, LRRCC1 / Fold change vs veh, LRRCC1 / RFU, ARID1A / Fold change vs veh, ARID1A / RFU, ZNF146 / Fold change vs veh, ZNF146 / RFU, ZNF330 / Fold change vs veh, ZNF330 / RFU, GPN3 / Fold change vs veh, GPN3 / RFU, C9orf123 / Fold change vs veh, C9orf123 / RFU, N4BP2L2 / Fold change vs veh, N4BP2L2 / RFU, ARFIP1 / Fold change vs veh, ARFIP1 / RFU, FAM179B / Fold change vs veh, FAM179B / RFU, BCL10 / Fold change vs veh, BCL10 / RFU, UHRF1BP1L / Fold change vs veh, UHRF1BP1L / RFU, BET1 / Fold change vs veh, BET1 / RFU, CNOT2 / Fold change vs veh, CNOT2 / RFU, ZNF268 / Fold change vs veh, ZNF268 / Fold change vs veh, ZNF507 / RFU, DGCR2 / Fold change vs veh, DGCR2 / RFU, WDSUB1 / Fold change vs veh, WDSUB1 / Fold change vs veh, HSP90B1 /// MIR3652 / RFU, ADSS / Fold change vs veh, ADSS / RFU, GK / Fold change vs veh, GK / RFU, ZNF148 / Fold change vs veh, ZNF148 / RFU, TAF9 / Fold change vs veh, TAF9 / RFU, SLC1A5 / Fold change vs veh, SLC1A5 / RFU, SLMO2 / Fold change vs veh, SLMO2 / RFU, ABCC4 / Fold change vs veh, ABCC4 / RFU, LOC101060439 /// RAP1B / Fold change vs veh, LOC101060439 /// RAP1B / RFU, RFX7 / Fold change vs veh, RFX7 / RFU, GTPBP10 / Fold change vs veh, GTPBP10 / RFU, CNEP1R1 / Fold change vs veh, CNEP1R1 / RFU, BIVM-ERCC5 /// ERCC5 / Fold change vs veh, BIVM-ERCC5 /// ERCC5 / RFU, ILF3 / Fold change vs veh, ILF3 / RFU 11762660_at / Fold change /veh 11762660_at / RFU VCAN (11757783_s_at) / Fold change /veh VCAN (11757783_s_at) / RFU DDX43 (11728927_at) / Fold change /veh DDX43 (11728927_at) / RFU KRT8 (11758188_x_at) / Fold change /veh KRT8 (11758188_x_at) / RFU NKD1 (11759106_at) / Fold change /veh NKD1 (11759106_at) / RFU SRD5A1 (11742802_a_at) / Fold change /veh SRD5A1 (11742802_a_at) / RFU TPSAB1 /// TPSB2 (11721975_s_at) / Fold change /veh TPSAB1 /// TPSB2 (11721975_s_at) / RFU GSTM3 (11746129_a_at) / Fold change /veh GSTM3 (11746129_a_at) / RFU IL23R (11737362_x_at) / Fold change /veh IL23R (11737362_x_at) / RFU TMEM51 (11727254_a_at) / Fold change /veh TMEM51 (11727254_a_at) / RFU PIWIL2 (11732686_x_at) / Fold change /veh PIWIL2 (11732686_x_at) / RFU ORM1 (11744905_x_at) / Fold change /veh ORM1 (11744905_x_at) / RFU CCDC152 (11743942_at) / Fold change /veh CCDC152 (11743942_at) / RFU ECM1 (11717891_a_at) / Fold change /veh ECM1 (11717891_a_at) / RFU IL23R (11748794_a_at) / Fold change /veh IL23R (11748794_a_at) / RFU TNFAIP8L3 (11732012_x_at) / Fold change /veh TNFAIP8L3 (11732012_x_at) / RFU MBOAT4 (11741988_at) / Fold change /veh MBOAT4 (11741988_at) / RFU 11764193_at / Fold change /veh 11764193_at / RFU TMEM53 (11763286_at) / Fold change /veh TMEM53 (11763286_at) / RFU MAGEB2 (11727129_at) / Fold change /veh MAGEB2 (11727129_at) / RFU TMEM200A (11744735_a_at) / Fold change /veh TMEM200A (11744735_a_at) / RFU CCDC152 (11751479_a_at) / Fold change /veh CCDC152 (11751479_a_at) / RFU FAM211A (11726209_a_at) / Fold change /veh FAM211A (11726209_a_at) / RFU RGS16 (11746705_a_at) / Fold change /veh RGS16 (11746705_a_at) / RFU VCAN (11755009_s_at) / Fold change /veh VCAN (11755009_s_at) / RFU RHOB (11743442_s_at) / Fold change /veh RHOB (11743442_s_at) / RFU RGS16 (11720943_a_at) / Fold change /veh RGS16 (11720943_a_at) / RFU RGS16 (11720944_at) / Fold change /veh RGS16 (11720944_at) / RFU, VPS4B / Fold change vs veh, VPS4B / RFU, CREB1 / Fold change vs veh, CREB1 / RFU, DNAJC13 / Fold change vs veh, DNAJC13 / RFU, GNAQ / Fold change vs veh, GNAQ / RFU, CDK5R1 / Fold change vs veh, CDK5R1 / RFU, ZRANB3 / Fold change vs veh, ZRANB3 / RFU, CUL4A / Fold change vs veh, CUL4A / RFU, CCNY / Fold change vs veh, CCNY / RFU, UFL1 / Fold change vs veh, UFL1 / RFU, COG3 / Fold change vs veh, COG3 / RFU, DIAPH2 / Fold change vs veh, DIAPH2 / RFU, SKA2 / Fold change vs veh, SKA2 / RFU, AFF3 / Fold change vs veh, AFF3 / RFU, LMF1 / Fold change vs veh, LMF1 / RFU, IPO11 / Fold change vs veh, IPO11 / RFU, DFFB / Fold change vs veh, DFFB / RFU, FOXP1 / Fold change vs veh, FOXP1 / RFU, CARD8 / Fold change vs veh, CARD8 / RFU, STRN3 / Fold change vs veh, STRN3 / RFU, ADK / Fold change vs veh, ADK / RFU, RASSF2 / Fold change vs veh, RASSF2 / RFU, WIPF1 / Fold change vs veh, WIPF1 / RFU, LARP1B / Fold change vs veh, LARP1B / RFU, RASA1 / Fold change vs veh, RASA1 / RFU, RB1 / Fold change vs veh, RB1 / RFU, PPFIA1 / Fold change vs veh, PPFIA1 / RFU, MAT2A / Fold change vs veh, MAT2A / RFU, CCT5 / Fold change vs veh, CCT5 / RFU, WDR92 / Fold change vs veh, WDR92 / RFU, CUX1 / Fold change vs veh, CUX1 / RFU, TTC7A / Fold change vs veh, TTC7A / RFU, TMEM135 / Fold change vs veh, TMEM135 / RFU, DEPTOR / Fold change vs veh, DEPTOR / RFU, CPM / Fold change vs veh, CPM / RFU, DNAJB6 / Fold change vs veh, DNAJB6 / RFU, CACNA2D3 / Fold change vs veh, CACNA2D3 / RFU, DTX4 / Fold change vs veh, DTX4 / RFU, TFCP2 / Fold change vs veh, TFCP2 / RFU, GMCL1 /// GMCL1P1 / Fold change vs veh, GMCL1 /// GMCL1P1 / RFU, AEBP2 / Fold change vs veh, AEBP2 / RFU, SNHG1 /// SNORD22 /// SNORD25 /// SNORD26 /// SNORD27 /// SNORD28 /// SNORD29 /// SNORD31 / Fold change vs veh, SNHG1 /// SNORD22 /// SNORD25 /// SNORD26 /// SNORD27 /// SNORD28 /// SNORD29 /// SNORD31 / Fold change (Aza/veh), C12orf56 (ProbeSet 11735607_a_at) / Fold change (ACY-1035/veh), C12orf56 (ProbeSet 11735607_a_at) / Fold change (Aza/veh), FGFR1OP (ProbeSet 11751329_s_at) / Fold change (ACY-1035/veh), FGFR1OP (ProbeSet 11751329_s_at) / Fold change (Aza/veh), VPS36 (ProbeSet 11739960_a_at) / Fold change (ACY-1035/veh), VPS36 (ProbeSet 11739960_a_at) / RFU SYPL1 (11715823_x_at) / Fold change /veh SYPL1 (11715823_x_at) / RFU IGFBP7 (11715501_s_at) / Fold change /veh IGFBP7 (11715501_s_at) / RFU REEP3 (11722064_at) / Fold change /veh REEP3 (11722064_at) / RFU IGLL1 (11728026_x_at) / Fold change /veh IGLL1 (11728026_x_at): dose or concentration left out as unconfirmed",
  "details": "ProbeSet 11756954_s_at; LIST B",
  "data": [
    {"smiles": "Nc1ccc(-c2cccs2)cc1NC(=O)c1ccc2c(c1)cc(C1CC1)n2CCN1CCOCC1", "note": "[ACY-1035]", "values": [
      {"measurement": "RFU, ZEB2", "result": 1361.36, "unit": "RFU"}
    ]}
  ]
}
